The record followed here is PMC4081830, “Structure of the Trehalose-6-phosphate Phosphatase from Brugia malayi Reveals Key Design Principles for Anthelmintic Drugs” (PLoS Pathogens, 2014).

For data set [1], the target named is T1, B. malayi T6PP (trehalose-6-phosphate phosphatase), wild type (Brugia malayi, UniProt A8NS89).
T1 construct: gene Bm1_08695; full-length (492 residues) from cDNA library, modified pET-15b(TEV), E. coli T7 Express; N-terminal His-tag removed by TEV protease
T1 sequence (A8NS89 1-492): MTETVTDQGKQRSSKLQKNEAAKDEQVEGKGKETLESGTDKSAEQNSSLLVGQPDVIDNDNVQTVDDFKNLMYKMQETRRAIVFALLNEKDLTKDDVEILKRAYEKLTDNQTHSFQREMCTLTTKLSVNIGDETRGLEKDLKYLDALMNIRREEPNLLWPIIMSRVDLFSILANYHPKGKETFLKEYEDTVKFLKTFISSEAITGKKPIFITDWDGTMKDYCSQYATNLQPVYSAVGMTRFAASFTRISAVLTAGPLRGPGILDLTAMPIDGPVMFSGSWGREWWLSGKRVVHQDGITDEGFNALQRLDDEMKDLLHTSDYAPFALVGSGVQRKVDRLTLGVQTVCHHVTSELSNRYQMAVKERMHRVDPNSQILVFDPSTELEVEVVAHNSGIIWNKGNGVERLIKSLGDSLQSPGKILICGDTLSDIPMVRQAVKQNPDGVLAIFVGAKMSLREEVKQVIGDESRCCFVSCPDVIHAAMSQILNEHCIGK
Briefly: inhibition kinetics. The format is biochemical.

Data set [2] has as its target T1, B. malayi T6PP (trehalose-6-phosphate phosphatase), wild type. Briefly: steady-state inhibition kinetics, EnzChek phosphate assay. The format is biochemical. As to conditions: read-out: KI, trehalose 6-sulfate.
For data set [3], the target named is T2, B. malayi T6PP (trehalose-6-phosphate phosphatase), wild type (Brugia malayi, UniProt A8NS89, E384A).
T2 construct: gene Bm1_08695
In words: biochemical. An excerpt: (§1) steady-state inhibition kinetics, EnzChek phosphate assay on B. malayi T6PP (trehalose-6-phosphate phosphatase), wild type

Data set [4] deals with T3, B. malayi T6PP (trehalose-6-phosphate phosphatase), wild type (Brugia malayi, UniProt A8NS89, R337A).
T3 construct: gene Bm1_08695
In words: biochemical.
Source text: as §1

Data set [5] deals with T4, B. malayi T6PP (trehalose-6-phosphate phosphatase), wild type (Brugia malayi, UniProt A8NS89, Y221A).
T4 construct: gene Bm1_08695
Briefly: biochemical.
Source text: as §1

In data set [6] the target is T5, B. malayi T6PP (trehalose-6-phosphate phosphatase), wild type (Brugia malayi, UniProt A8NS89, K334A).
T5 construct: gene Bm1_08695
In words: biochemical.
Source text: as §1

Data set [7] has as its target T6, B. malayi T6PP (trehalose-6-phosphate phosphatase), wild type (Brugia malayi, UniProt A8NS89, W280A).
T6 construct: gene Bm1_08695
In words: biochemical.
Source text: as §1

Data set [8] has as its target T7, B. malayi T6PP (trehalose-6-phosphate phosphatase), wild type (Brugia malayi, UniProt A8NS89, S329A).
T7 construct: gene Bm1_08695
In words: biochemical.
Source text: as §1

Data set [9] deals with T8, B. malayi T6PP (trehalose-6-phosphate phosphatase), wild type (Brugia malayi, UniProt A8NS89, Y225A).
T8 construct: gene Bm1_08695
Briefly: biochemical.
Source text: as §1

Data set [10] concerns the target T9, B. malayi T6PP (trehalose-6-phosphate phosphatase), wild type (Brugia malayi, UniProt A8NS89, D378A).
T9 construct: gene Bm1_08695
In words: biochemical.
Source text: as §1

Data set [11] deals with T10, B. malayi T6PP (trehalose-6-phosphate phosphatase), wild type (Brugia malayi, UniProt A8NS89, N228A).
T10 construct: gene Bm1_08695
In words: biochemical.
Source text: as §1

The target of data set [12] is T11, B. malayi T6PP (trehalose-6-phosphate phosphatase), wild type (Brugia malayi, UniProt A8NS89, Q332A).
T11 construct: gene Bm1_08695
Briefly: biochemical.
Source text: as §1

Data set [13] has as its system O=P(O)(O)OC[C@H]1O[C@H](O[C@H]2O[C@H](CO)[C@@H](O)[C@H](O)[C@H]2O)[C@H](O)[C@@H](O)[C@@H]1O. In words: steady-state kinetics, EnzChek phosphate assay. The format is biochemical, Brugia malayi. To be noted: 25 mM Tris pH 7.5, 50 mM NaCl, 5 mM MgCl2. An excerpt:
steady-state kinetics, EnzChek phosphate assay on T6PP-Δ59

Substrate in data set [14]: O=P(O)(O)OC[C@H]1O[C@H](O[C@H]2O[C@H](CO)[C@@H](O)[C@H](O)[C@H]2O)[C@H](O)[C@@H](O)[C@@H]1O
In words: steady-state kinetics, EnzChek phosphate assay. To be noted: 25 mM Tris pH 7.5, 50 mM NaCl, 5 mM MgCl2. The format is biochemical, Brugia malayi. The source holds these as a separate data set.

Bounds are passed on as bounds.

For the molecule `O=P(O)(O)OC[C@H]1OC(O)[C@H](O)[C@@H](O)[C@@H]1O` (stereo partly shown) [glucose 6-phosphate], the Ki (usually the dissociation constant of the complex between target and ligand, obtained from inhibition or displacement) in data set [1] (no inhibition, substrate trehalose 6-phosphate) was greater than 10000 µM.

With `O=S(=O)(O)OC[C@H]1O[C@H](O[C@H]2O[C@H](CO)[C@@H](O)[C@H](O)[C@H]2O)[C@H](O)[C@@H](O)[C@@H]1O` [trehalose 6-sulfate], the Ki in [2] was found to be 82 ± 7 µM; in data set [3], 200 ± 30 µM; in data set [4], 700 ± 100 µM; in [5], 1300 µM; in data set [6], 150 ± 20 µM; in [7], 270 ± 50 µM. The Ki came to 240 ± 30 µM in [8]; 400 ± 40 µM in [9]; 320 ± 30 µM in data set [10]; 16 ± 2 µM in data set [11]; 1000 µM in data set [12].

In turn, `OC[C@H]1O[C@H](O[C@H]2O[C@H](CO)[C@@H](O)[C@H](O)[C@H]2O)[C@H](O)[C@@H](O)[C@@H]1O` [trehalose] came in with a Ki in data set [1] greater than 10000 µM.

T6PP-Δ59 (Brugia malayi): in [13], the Km – broadly, the substrate concentration at which the rate is half of its maximum – was determined as 260 ± 20 µM; the kcat (usually the number of substrate molecules converted per active site and unit of time at saturation) is 28 ± 1 s⁻¹; the kcat/Km – broadly, the turnover number divided by the Michaelis constant – was determined as 110000 M⁻¹ s⁻¹.

B1: B. malayi T6PP (trehalose-6-phosphate phosphatase), wild type (Brugia malayi) (protein)
chain: T1 sequence (A8NS89 1-492)
notes: full-length (492 residues) from cDNA library, modified pET-15b(TEV), E. coli T7 Express; N-terminal His-tag removed by TEV protease
Take B1: in data set [14], the Km turned out to be 360 ± 60 µM, the kcat was found to be 24 ± 2 s⁻¹ and the kcat/Km turned out to be 69000 M⁻¹ s⁻¹.
